According to US9546179B2, “Heterocycle amido alkyloxy substituted quinazoline derivative and use thereof” (priority 2011, dated 2017):

Experiments:
[1] = system: Human lung cancer cells (A549); test: Anticancer effect in vitro on A549 cells (MTT, GI50); type: cell-based; settings: A549, 72 hours
Procedure: The inhibitory effect on the cancer cells of the compounds prepared in Example 1-Example 13, Example 20, Example 48, Example 49 and Example 57 was determined in vitro using cancer cells. The results are shown in table 2, and the specific detection methods are as follows:
Human lung cancer cells were (A549, purchased from Shanghai FuMeng Gene Bio-technology Co., Ltd.) cultured in DMEM containing 2 m M/L-glutamine and 10% FBS, and inoculated in 96-well plate, 200 μL/well and 2000 cells per well; the plate was preincubated for 24 hours under the condition of 5% CO2 and 100% relative humidity at 37° C., allowing for cell adherence.
When the cells adhered, the supernatant was removed, and 200 μL drug-containing culture medium was added with different concentration of compounds into each well (in concentration of 20 μg/ml, 12.5 µg/ml, 6.25 μg/ml, […], 1.5625 μg/ml and 0.78125 μg/ml), 3 multiple wells were set up for each drug concentration as well as blank control (cell culture medium without cells), and drug-free control (with no drugs, filled with complete medium in equal amount only), cultured for 72 hours under the condition of 5% CO2 incubator at 37° C. (100% relative humidity).
After the culture ended, the supernatant was carefully removed, and adding 200 μl DMEM culture medium containing 3% FBS with 500 μg/ml MTT into each well, and culturing for 4 hours under the condition of 5% CO2 incubator at 37° C. (100% relative humidity). After the supernatant was discarded, 150 μL DMSO was added in each well for solving. the GI50 value was measured by detecting the absorbance in the 570 nm wavelength.

[2] = biological target: T1, receptor tyrosine kinase EGFR (Homo sapiens, UniProt P00533); test: Inhibitory effect on receptor tyrosine kinase EGFR (ELISA, Poly(Glu, Tyr)4:1, PY99 antibody); type: biochemical; settings: ATP 4 μM, 1 hour at 37° C.
T1 construct: purchased Shanghai 3bio Technology Co., Ltd. Lot No. 4018780925
T1 sequence (P00533 25-1210): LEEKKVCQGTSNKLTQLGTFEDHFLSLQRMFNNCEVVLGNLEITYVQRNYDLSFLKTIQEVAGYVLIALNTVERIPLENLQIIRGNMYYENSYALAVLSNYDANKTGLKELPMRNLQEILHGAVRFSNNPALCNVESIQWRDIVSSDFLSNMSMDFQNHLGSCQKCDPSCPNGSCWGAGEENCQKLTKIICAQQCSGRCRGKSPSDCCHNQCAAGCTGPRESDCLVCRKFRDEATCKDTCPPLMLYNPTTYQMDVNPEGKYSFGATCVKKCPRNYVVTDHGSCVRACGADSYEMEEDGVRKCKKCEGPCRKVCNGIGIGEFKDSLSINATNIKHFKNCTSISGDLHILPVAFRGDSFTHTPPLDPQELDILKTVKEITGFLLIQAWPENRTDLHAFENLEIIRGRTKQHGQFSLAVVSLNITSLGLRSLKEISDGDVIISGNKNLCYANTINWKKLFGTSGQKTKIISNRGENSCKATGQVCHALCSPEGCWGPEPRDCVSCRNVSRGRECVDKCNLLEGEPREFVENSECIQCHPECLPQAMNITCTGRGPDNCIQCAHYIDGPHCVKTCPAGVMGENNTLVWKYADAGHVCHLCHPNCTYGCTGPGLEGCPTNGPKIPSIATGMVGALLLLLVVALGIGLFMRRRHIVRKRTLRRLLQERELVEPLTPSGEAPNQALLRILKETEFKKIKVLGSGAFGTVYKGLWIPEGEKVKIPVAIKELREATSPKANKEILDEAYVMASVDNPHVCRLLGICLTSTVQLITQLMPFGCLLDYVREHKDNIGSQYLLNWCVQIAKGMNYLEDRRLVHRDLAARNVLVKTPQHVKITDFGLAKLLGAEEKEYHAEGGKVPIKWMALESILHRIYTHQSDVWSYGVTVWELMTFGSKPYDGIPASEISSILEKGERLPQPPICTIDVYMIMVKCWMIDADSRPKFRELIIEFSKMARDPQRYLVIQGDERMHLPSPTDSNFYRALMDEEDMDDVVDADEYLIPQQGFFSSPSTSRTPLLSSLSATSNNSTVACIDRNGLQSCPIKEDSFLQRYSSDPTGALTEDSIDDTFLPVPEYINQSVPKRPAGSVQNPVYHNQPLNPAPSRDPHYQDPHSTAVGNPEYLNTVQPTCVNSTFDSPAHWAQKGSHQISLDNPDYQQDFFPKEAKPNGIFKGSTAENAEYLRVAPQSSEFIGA
Method in brief: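 Poly(Glu,Tyr)4:1-coated plates; kinase reaction with 4 μM ATP and compound at 1.0000–0.00024 μg/ml, run 1 h at 37 °C. Phosphotyrosine detected with PY99 and HRP anti-mouse IgG, OPD colour read at A492, and inhibition rate calculated.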

| GI50 [1] [nM] | IC50 [2] [nM] | Structure (SMILES) |
| --- | --- | --- |
| 24300 | 10 to 100 | COc1cc2ncnc(Nc3ccc(F)c(Cl)c3)c2cc1OCCCN1CCC2(CCOCC2)C1 [Example 9, 4-(3′-chloro-4′-fluorophenylamino)-6-[3-(8-oxa-2-azaspiro[4.5]decane-2-yl)-propoxy]-7-methoxyquinazoline] |
| 21000 | 0.1 to 10 | C#Cc1cccc(Nc2ncnc3cc(OC)c(OCCCN4CC5(C4)CN(C)C(=O)O5)cc23)c1 [Example 49] |
| 26600 | 100 to 1000 | COc1cc2ncnc(Nc3ccc(F)c(Cl)c3)c2cc1OCCN1CC2CCC(C1)O2 [Example 11, 4-(3′-chloro-4′-fluorophenylamino)-6-[2-(8-oxa-3-azabicyclo[3.2.1]octane-3-yl)-oxethyl]-7-methoxyquinazoline] |
| 59500 | 10 to 100 | COc1cc2ncnc(Nc3cc(Cl)ccc3F)c2cc1OCCCN1CC[C@H]2OCC[C@H]21 (relative stereo) [Example 20, 4-(5′-chloro-2′-fluorophenylamino)-6-[3-(cis-hexahydrofuro[3,2-b]pyrrole-4-yl)-propoxy]-7-methoxyquinazoline] |
| 17800 | 0.1 to 10 | C#Cc1cccc(Nc2ncnc3cc(OC)c(OCCCN4CC5(CNC(=O)O5)C4)cc23)c1 [Example 48] |
| 15100 | 10 to 100 | COc1cc2ncnc(Nc3ccc(F)c(Cl)c3)c2cc1OCCCN1CCC2(CCOC2)C1 (centres unmarked) [Example 7, 4-(3′-chloro-4′-fluorophenylamino)-6-[3-(2-oxa-7-azaspiro[4.4]nonane-7-yl)-propoxy]-7-methoxyquinazoline] |
| 23400 | 10 to 100 | COc1cc2ncnc(Nc3ccc(F)c(Cl)c3)c2cc1OCCN1CCC2(CCOC2)C1 (centres unmarked) [Example 8, 4-(3′-chloro-4′-fluorophenylamino)-6-[2-(2-oxa-7-azaspiro[4.4]nonane-7-yl)-oxethyl]-7-methoxyquinazoline] |
| 10200 | 100 to 1000 | COc1cc2ncnc(Nc3ccc(F)c(Cl)c3)c2cc1OCCN1CCC2(COC2)C1 [Example 3, 4-(3′-chloro-4′-fluorophenylamino)-6-[2-(2-oxa-6-azaspiro[3.4]octane-6-yl)-oxethyl]-7-methoxyquinazoline] |
| 8500 | 10 to 100 | COc1cc2ncnc(Nc3ccc(F)c(Cl)c3)c2cc1OCCCN1CC2(CCOCC2)C1 [Example 4, 4-(3′-chloro-4′-fluorophenylamino)-6-[3-(7-oxa-2-azaspiro[3.5]nonane-2-yl)-propoxy]-7-methoxyquinazoline] |
| 8600 | 10 to 100 | COc1cc2ncnc(Nc3ccc(F)c(Cl)c3)c2cc1OCCCN1CCC2(CC1)COC2 [Example 5, 4-(3′-chloro-4′-fluorophenylamino)-6-[3-(2-oxa-7-azaspiro[3.5]nonane-7-yl)-propoxy]-7-methoxyquinazoline] |
| 20700 | 10 to 100 | COc1cc2ncnc(Nc3ccc(F)c(Cl)c3)c2cc1OCCN1CCC2(CC1)COC2 [Example 6] |
| 35200 | 10 to 100 | COc1cc2ncnc(Nc3ccc(F)c(Cl)c3)c2cc1OCCN1CCC2(CCOCC2)C1 [Example 10, 4-(3′-chloro-4′-fluorophenylamino)-6-[2-(8-oxa-2-azaspiro[4.5]decane-2-yl)-oxethyl]-7-methoxyquinazoline] |
| 23800 | > 1000 | COc1cc2ncnc(Nc3ccc(F)c(Cl)c3)c2cc1OCCN1CC2(CNC(=O)C2)C1 [Example 57, 4-(3′-chloro-4′-fluorophenylamino)-6-[2-(2,6-diazaspiro[3.4]octane-7-ketone-2-yl)-oxethyl]-7-m ethoxyquinazoline] |
| 39700 | 10 to 100 | COc1cc2ncnc(Nc3ccc(F)c(Cl)c3)c2cc1OCCCN1CC2(COC2)C1 [Example 1, 4-(3′-chloro-4′-fluorophenylamino)-6-[3-(2-oxa-6-azaspiro[3.3]heptane-6-yl)-propoxy]-7-methoxyquinazoline] |
| – | 10 to 100 | C#Cc1cccc(Nc2ncnc3cc(OC)c(OCCCN4CC5(COC5)C4)cc23)c1 [Example 38, 4-(3′-ethynylphenylamino)-6-[3-(2-oxa-6-azaspiro[3.3]heptane-6-yl)-propoxy]-7-methoxyquinazoline] |
| – | 10 to 100 | C#Cc1cccc(Nc2ncnc3cc(OC)c(OCCCN4CCC5(CCNC5=O)CC4)cc23)c1 [Example 72, 4-(3′-ethynylphenylamino)-6-[3-(2,8-diazaspiro[4.5]decane-1-ketone-8-yl)-propoxy]-7-methoxyquinazoline] |
| – | 0.1 to 10 | COc1cc2ncnc(Nc3cccc(Cl)c3F)c2cc1OCCCN1CCC2(C1)CN(C)C(=O)O2 (centres unmarked) [Example 35, 4-(3′-chloro-2′-fluorophenylamino)-6-[3-(3-methyl-1-oxa-3,7-diazaspiro[4.4]nonane-2-ketone-7-yl)-propoxy]-7-methoxycquinazoline] |
| – | 0.1 to 10 | COc1cc2ncnc(Nc3cc(Cl)ccc3F)c2cc1OCCCN1CC2(COC2)C1 [Example 14, 4-(5′-chloro-2′-fluorophenylamino)-6-[3-(2-oxa-6-azaspiro[3.3]heptane-6-yl)-propoxy]-7-methoxyquinazoline] |
| – | 10 to 100 | COc1cc2ncnc(Nc3cccc(Cl)c3F)c2cc1OCCCN1CCC2(CCN(C)C2=O)C1 (centres unmarked) [Example 30, 4-(3′-chloro-2′-fluorophenylamino)-6-[3-(2-methyl-2,7-diazaspiro[4.4]nonane-1-ketone-7-yl)-propoxy]-7-methoxyquinazoline] |
| – | 10 to 100 | COc1cc2ncnc(Nc3cc(Cl)ccc3F)c2cc1OCCCN1CCC2(CCOC2)C1 (centres unmarked) [Example 15, 4-(5′-chloro-2′-fluorophenylamino)-6-[3-(2-oxa-7-azaspiro[4.4]nonane-7-yl)-propoxy]-7-methoxyquinazoline] |
| – | 10 to 100 | COc1cc2ncnc(Nc3cc(Cl)ccc3F)c2cc1OCCCN1CCC2(CCN(C(C)=O)C2)C1 (centres unmarked) [Example 19, 4-(5′-chloro-2′-fluorophenylamino)-6-[3-(7-acetyl-2,7-diazaspiro[4.4]-nonane-2-yl)-propoxy]-7-methoxyquinazoline] |
| – | 10 to 100 | COc1cc2ncnc(Nc3ccc(F)c(Cl)c3)c2cc1OCCCN1CCC2(CCNC2=O)CC1 [Example 82, 4-(3′-chloro-4′-fluorophenylamino)-6-[3-(2,8-diazaspiro[4.5]decane-1-ketone-8-yl)-propoxy]-7-methoxyquinazoline] |

| Structure (SMILES) | GI50 [1] [nM] | IC50 [2] [nM] |
| --- | --- | --- |
| COc1cc2ncnc(Nc3ccc(F)c(Cl)c3)c2cc1OCCN1C2CCC1COC2 [Example 13, 4-(3′-chloro-4′-fluorophenylamino)-6-[2-(3-oxa-8-azabicyclo[3.2.1]octane-8-yl)-oxethyl]-7-methoxyquinazoline] | 28800 | 10 to 100 |
